Experimental data published in US20080153886A1, “Use Of Heterocyclic Compounds As Neurogenic Agents” (NEUROPHARMA, S.A., priority 2005, published 2008).

tested on: Neurospheres of the cerebral cortex and hippocampus of 2-day-old postnatal rats; assay: Neurosphere differentiation test (immunofluorescence with anti-GFAP / anti-MAP2 antibodies); assay type: cell-based, rat; settings: neurospheres grown 7 days in suspension with compound, 24 h on polylysine slides; versus basal (no compound); confocal images
Description: Neurospheres of the cerebral cortex and hippocampus of 2-day-old postnatal rats were grown in suspension culture for 7 days in the presence or absence of a formula (I) compound according to the invention, after which they were transferred to slides covered with polylysine and 24 h later (once adhered) immunofluorescence analyses were performed with anti-GFAP antibodies to view the astrocyte differentiation, or with anti-MAP2 to view neuronal differentiation. The images were captured on a TCS SP2 confocal microscope (Leica Microsystems).

| Structure (SMILES) | astrocyte differentiation of cells present in isolated neurospheres (anti-GFAP immunofluorescence) | neuronal differentiation of cells present in isolated neurospheres (anti-MAP2 immunofluorescence) |
| --- | --- | --- |
| O=c1sn(-c2ccc(Oc3ccccc3)cc2)c(=O)n1Cc1ccccc1 [compound [4], 4-benzyl-2-(4-phenoxy-phenyl)-[1,2,4]thiadiazolidine-3,5-dione] | induces | induces |
| O=c1sn(C(c2ccccc2)c2ccccc2)c(=O)n1Cc1ccccc1 [compound [3], 2-Benzhydryl-4-benzyl-[1,2,4]thiadiazolidine-3,5-dione] | induces | induces |
| O=c1sn(Cc2ccccc2)c(=O)n1Cc1ccccc1 [compound [1], 2,4-dibenzyl-[1,2,4]thiadiazolidine-3,5-dione] | induces | induces |
| O=c1sn(-c2cccc3ccccc23)c(=O)n1Cc1ccccc1 [compound [2], 4-benzyl-2-naphthalene-1-yl-[1,2,4]thiadiazolidine-3,5-dione] | induces | induces |
